Test results from patent US8030358B2, “Methods and pharmaceutical compositions for decorporation of radioactive compounds” (priority 2007, dated 2011).

What was measured:
[1] = Small Animal Decorporation Efficacy Study; assay type: in vivo; conditions: rats; oral C2E5 compared with IV administration of equivalent doses of DTPA
[2] = Bioavailability study (oral C2E5 vs intravenous DTPA); assay type: in vivo, rat
Method: A bioavailability study was conducted in which five rats were intravenously administered 5 mg of DTPA and another 5 rats were orally administered an equivalent […] dose (approximately 7 mg) of C2E5 in a 10% ethanol solution. Blood samples were obtained at regular intervals from an in-dwelling catheter that had been surgically implanted prior to the administration of the doses.

## CCOC(=O)CN(CCN(CC(=O)OCC)CC(=O)OCC)CCN(CC(=O)OCC)CC(=O)OCC [C2E5, DTPA Pentaethyl Ester]
[1]
  decorporation of ^241Am: compared favorably
[2]; rat model, oral, approximately 7 mg C2E5 in a 10% ethanol solution, compared with 5 mg DTPA intravenously
  bioavailability: ~100%
[2]; rat, after oral C2E5 in a 10% ethanol solution
  C2E5 detected in the plasma: no C2E5 can be detected in the plasma
[2]; rat, oral C2E5
  conversion to DTPA after absorption from the gastrointestinal tract: quantitatively and rapidly converted to DTPA
[2]; rat, oral C2E5 vs 5 mg DTPA intravenously
  blood concentration profile compared to IV DTPA: lower blood levels and a longer duration compared to IV DTPA
